Laboratory results reported in article PMC11979685, “Synthesis of Derivatives of the Antibiotic Albicidin: The N‐Terminal Fragment as Key to Control Potency and Resistance Mediated by the Binding Protein AlbA” (Chemistry (Weinheim an Der Bergstrasse, Germany), 2025).
Converted amounts (≈) assume the structure as drawn.

How the values were obtained:
[1] = test system: Mycobacterium phlei DSM 750; assay: MIC determination (broth microdilution); format: cell-based; conditions: Mycolicibacterium phlei, DSM750; read-out: MIC M. phlei
Description: (§1) After completing the syntheses, the antibacterial activity of A‐variations 4–24 was assessed by determination of MIC values against a basic set of gram‐negative and gram‐positive bacteria (Table 1). The monocyclic derivatives 4–8 featuring a cyano‐, trifluoromethyl‐, methoxy‐ and fluoro‐ substituent in para‐position were very active against the gram–negative E. coli and S. typhimurium strains with MIC values in the same range as 3rd Gen albicidin 3 or ciprofloxacin which is the gold standard for gyrase inhibitors. […] These findings are in agreement with previous studies showing good activities for cyano, trifluoromethyl, methoxy and fluoro substituents in the para‐position of different aromatic rings in the building block A.[12, 13] The activity of the monocyclic derivatives 4–8 against the gram‐positive strains B. subtilis and M. luteus were similar but slightly less pronounced compared to the lead structure 3.
(§2) 1.1 Determination of Minimal Inhibitory Concentrations (MIC)
(§3) Minimal inhibitory concentration (MIC) against selected bacterial strains values were determined according to the ninth edition of the Approved Standard M07-A9.[1] 20 μL of cryo stocks of bacterial strains were suspended in 20 mL LB medium (Lysogeny broth: 10 g/L peptone, 5 g/L yeast extract, 5 g/L NaCl). Following incubation overnight at 37°C, 200 rpm, the test inoculum was adjusted by 0.5 McFarland Standard in cation adjusted Mueller-Hinton broth (BBLTM Mueller-Hinton Broth II, Becton, Dickinson and Company, New Jersey, USA) to approximately 1x10^6 CFU mL-1. 95 μL of the bacterial inoculum were applied per well of a 96-well plate. Albicidin and albicidin derivatives 3−24 were dissolved in DMSO (100%) to an initial concentration of 2560 μg/mL and serially diluted in DMSO (100%). Initial solution and serial dilutions of Ciprofloxacin were prepared in 0.1 N HCL, respectively. 5 μL of each antibiotic dilution were added to the microdilution tray to reach albicidin concentrations of 128 μg/mL to 0.016 μg/mL per well. One row of each well plate served as a growth control without antibiotic substances and another row of the microdilution tray served as sterility control (only MHB II - media). The antimicrobial effect of the solvent (DMSO) was tested by adding 5 μL DMSO to several wells. Purity check and cell titer control were performed according to International S tandard M07-A9 on Mueller-Hinton II Agar (Mueller Hinton II Broth, 15 g/L agar-agar). Both microdilution trays and agar plates were incubated at 30−37°C for 16 h and subsequently analyzed for growth inhibition by naked eye. The following primary panel of microorganisms were purchased from German Collection of Microorganisms and Cell Cultures (DSMZ):
(§4) Escherichia coli DSM 1116
(§5) Micrococcus luteus DSM 1790
(§6) Mycobacterium phlei DSM 750
(§7) Salmonella typhimurium TA100 was kindly provided by Prof. Dr. Vera Meyer (Technische Universität Berlin). […]
(§8) was purchased as part of the single gene knockout library of E. coli K12 BW25113 (Keio collection) from Horizon Discovery group plc (Cambridge, UK).

[2] = test system: Salmonella typhimurium TA100; assay: MIC determination (broth microdilution); format: cell-based; conditions: Salmonella enterica, read-out: MIC S. typh.
Description: as §1, §2, §3, §4, §5, §6, §7, §8

[3] = test system: Micrococcus luteus DSM 1790; assay: MIC determination (broth microdilution); format: cell-based; conditions: DSM1790, read-out: MIC M. luteus
Description: as §1, §2, §3, §4, §5, §6, §7, §8

Bacillus subtilis DSM 10 = assay: MIC determination (broth microdilution); format: cell-based; conditions: DSM10, read-out: MIC B. sub.
Description: as §1, §2, §3, §4, §5, §6, §7, §8

E. coli BW25113 = assay: MIC determination (broth microdilution); format: cell-based; conditions: Escherichia coli, BW25113; read-out: MIC E. coli BW25113
Description: as §1, §2, §3, §4, §5, §6, §7, §8

E. coli DSM1116 = assay: MIC determination (broth microdilution); format: cell-based; conditions: Escherichia coli, DSM1116; read-out: MIC E. coli DSM1116
Description: as §1, §2, §3, §4, §5, §6, §7, §8

E. coli DNA gyrase = E. coli DNA gyrase (Escherichia coli, UniProt P0AES4); assay: E. coli gyrase DNA cleavage assay; format: biochemical; design: key to Gyrase inhibition strong+ / weak −: + strong inhibition; − weak inhibition in comparison to compound 16; conditions: qualitative DNA cleavage assay at 1 μM and 10 μM, in comparison to compound 16
Sequence of E. coli DNA gyrase (P0AES4 whole entry): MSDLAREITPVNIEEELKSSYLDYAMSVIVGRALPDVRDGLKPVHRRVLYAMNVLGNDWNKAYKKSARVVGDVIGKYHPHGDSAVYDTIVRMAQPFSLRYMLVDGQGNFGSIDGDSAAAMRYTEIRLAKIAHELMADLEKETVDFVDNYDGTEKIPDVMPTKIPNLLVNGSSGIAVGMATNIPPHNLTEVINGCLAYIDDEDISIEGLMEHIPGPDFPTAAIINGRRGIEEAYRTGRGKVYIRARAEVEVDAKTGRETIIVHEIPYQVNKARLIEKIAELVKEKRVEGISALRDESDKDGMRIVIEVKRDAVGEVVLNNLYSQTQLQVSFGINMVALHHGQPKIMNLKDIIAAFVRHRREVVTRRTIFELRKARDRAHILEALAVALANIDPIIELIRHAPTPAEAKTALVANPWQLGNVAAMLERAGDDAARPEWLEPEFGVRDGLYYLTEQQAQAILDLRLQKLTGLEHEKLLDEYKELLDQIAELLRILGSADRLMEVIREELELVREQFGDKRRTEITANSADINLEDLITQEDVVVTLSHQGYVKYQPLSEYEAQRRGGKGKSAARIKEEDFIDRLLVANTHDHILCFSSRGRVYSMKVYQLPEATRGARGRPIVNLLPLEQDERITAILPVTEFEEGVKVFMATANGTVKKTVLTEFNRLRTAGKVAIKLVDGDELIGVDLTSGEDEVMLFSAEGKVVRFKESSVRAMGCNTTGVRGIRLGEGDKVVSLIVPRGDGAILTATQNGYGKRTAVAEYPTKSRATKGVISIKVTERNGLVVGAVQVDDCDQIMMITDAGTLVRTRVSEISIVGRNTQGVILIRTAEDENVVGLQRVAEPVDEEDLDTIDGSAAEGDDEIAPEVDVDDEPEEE
Description: The target activity of the synthesized derivatives was investigated using a DNA cleavage assay with purified and enzymatically active E. coli DNA gyrase[8] (see SI). In this assay, albicidin‐stabilized complexes of gyrase and plasmid DNA are trapped, and subsequently denatured and deproteinated to reveal DNA linearized by gyrase. […] For the best performing compounds, which were able to fully stabilize the cleavage complex at a concentration of 1 μM, the concentrations at half‐maximum cleavage (CC50) were determined (Figure 3).
1.2 Escherichia coli Gyrase Cleavage Inhibition Assay
E. coli gyrase cleavage assays were executed by setting up a master mix including 0.25 µg relaxed plasmid (pBR322) in 35 mM Tris-HCl (pH 7.5), 24 mM KCl, 4 mM MgCl2, 2 mM dithithreitol (DTT), 1.8 mM spermidine, 1 mM ATP, 6.5% (wt/vol) glycerol and 0.1 mg/ml bovine serum albumin per reaction.
Of this stock solution, 13.2 µL was aliquoted for each reaction into 1.5 mL Eppendorf tubes and supplemented with 0.3 µL of the appropriate compound dilution or DMSO with a […] DMSO concentration of 2% per reaction. The reactions were started with 1.5 µL of 50 nM (pre-screening) or 40 nM (IC50 determinations) wt E. coli gyrase in dilution buffer (50 mM Tris-HCl (pH 7.5), 100 mM KCl, 2 mM DTT, 1 mM EDTA, and 50% (wt/vol) glycerol) for a […] volume of 15 µL. Reactions were incubated at 37°C for 30 minutes before addition of 1.5 µL 0.2% (wt/vol) SDS and 0.75 µL proteinase K (0.2 mg/mL) and further incubation at 37°C for 30 minutes to trap cleavage complexes. Reactions were stopped with 15 µL chloroform:isoamyl alcohol (24: 1 v/v) and 15 µL of STEB (40% (wt/vol) sucrose, […] Tris-Cl pH 8, 10 mM EDTA, 0.5 mg/mL bromophenol blue). After brief vortexing and centrifugation at 2,300g for 5 min, 15 µL of the aqueous phase was loaded onto 1% (wt/vol) agarose in TAE (Tris-acetate […] and EDTA […]) gels supplemented with 10 µg/mL ethidium bromide.
The gels were run at 85 V for 2 hours.
DNA was visualized (602/50, UV Trans, auto optimal exposure) with a ChemiDoc MP (Bio-Rad Laboratories Inc., equipped with ImageLab Touch Software v2.0.0.27) and the percentage of cleaved DNA relative to the total amount of DNA per lane was determined with ImageJ software.[2] IC50 curves were generated in GraphPad Prism (v10.0.0) using the non-linear regression curve fit variable slope with four parameters and least squares regression.

E. coli = assay: MIC against E. coli in presence of 50 % human serum; format: cell-based; conditions: Escherichia coli; E. coli in presence of 50 % human serum; read-out: MICEc 50%HS
[4] = Reverse-phase HPLC retention time as estimate of lipophilicity; format: physicochemical; conditions: indicator of lipophilicity
From the text: As mentioned before, albicidin 1 is a rather hydrophobic compound and improving its aqueous solubility is desirable. The lipophilicity of drug molecules is commonly characterized by the octanol/water partition coefficient (logP). An alternative approach relies on the correlation between lipophilicity and the retention time (Rt) on a reverse‐phase HPLC column.[31] This approach works well if structurally related compounds are compared as is the case for this SAR study. Rt was thus used to estimate the hydrophilicity of albicidin 1 and its derivatives 2–24 (Table 1).[32]

E. coli DSM 1116 = assay: Qualitative growth inhibition assay in presence of AlbAS; format: cell-based, Escherichia coli
Description: Finally, we investigated if synthetic variations of building block A are able to evade the effects of the resistance protein AlbA. Therefore, we carried out a qualitative growth inhibition assay with derivatives 4–24 in presence of an equimolar amount of purified AlbAS. After incubation of the cultures overnight, the growth of the bacteria was evaluated. The ability of AlbAS to sufficiently sequester an albicidin derivative from the supernatant allowed E. coli cells to accumulate in a visible cell pellet. Second, we performed a quantitative transcription‐activation reporter assay[22] to assess transcriptional regulation by AlbAL. The promoter sequence pAlbA was inserted into a reporter vector that encodes the ilux luminescence cassette.[22] The luminescence signals elicited by ligand binding of synthetic variations to AlbAL was compared and normalized to the signal induced by 2nd Gen albicidin 2 and are hereby referred to as relative transcription activation (TA^%). The combination of both assays prompted us to categorize the experimental outcomes (Figure 4) in four groups:
Figure 4 Characterization of AlbA resistance against derivatives 2, 4–24. GIA: Qualitative growth inhibition assay against E. coli DSM 1116. (−): Derivative unable to inhibit the growth of E. coli in presence of AlbAS. (+): Derivative inhibits growth of E. coli in presence of AlbAS. […] For details see SI Figure 9. Transcription activation (TA) assay: luminescence elicited by 2nd Gen albicidin 2 from the TA assay was normalized to 100 % and the luminescence signal of tested derivatives provided: relative luminescence [%]=luminescence [derivative]/luminescence [2]×100 %. Green bars indicate low relative luminescence (<40 %) and red bars indicate high relative luminescence (>50 %). Error bars show the standard deviations of triplicate measurements. TEXT PRINTED IN THE PICTURE: 2: E. coli inhibition +AlbA: − | 4: E. coli inhibition +AlbA: + | 9: E. coli inhibition +AlbA: + | 11: E. coli inhibition +AlbA: + | 12: E. coli inhibition +AlbA: + | 13: E. coli inhibition +AlbA: ~ | 14: E. coli inhibition +AlbA: − | 16: E. coli inhibition +AlbA: − | 17: E. coli inhibition +AlbA: − | 18: E. coli inhibition +AlbA: − | 19: E. coli inhibition +AlbA: − | 20: E. coli inhibition +AlbA: + | 21: E. coli inhibition +AlbA: − | 22: E. coli inhibition +AlbA: − | 23: E. coli inhibition +AlbA: − | 24: E. coli inhibition +AlbA: − […]
1.3 Resistance assessment against AlbA
E. coli strain DSM 1116 was used for all susceptibility testing. E. coli BL21 Star (DE3) cells (Invitrogen) were used for protein expression. LB medium (Lysogeny broth: 10 g/L peptone, 5 g/L yeast extract, 5 g/L NaCl) was used as broth or in agar plates for all experiments. Incubation steps took place at 37°C and 180 rpm shaking if not stated otherwise. Throughout the study, 2nd Gen albicidin 2 was used as albicidin standard due to its better stability, availability and similar activity compared to natural albicidin in presence of resistance factors.[3,4]
AlbA expression and purification
N-terminally His-tagged AlbA was expressed using a pET28a vector as described previously.[5] In brief, E. coli BL21(DE3) cells were transformed with pET28-AlbA plasmid and grown in LB medium with kanamycin. LB broth supplemented with 50 µg/mL kanamycin was inoculated from over-night cultures and grown at 37°C until an OD600 of 0.6 was reached. After induction with 0.2 mM isopropyl β-D-1-thiogalactopyranoside (IPTG) the proteins were expressed at 18°C for 20 h. The cells were harvested by centrifugation (4,000 x G, 20 min), resuspended in lysis buffer (50 mM Tris, pH 8.0, 500 mM NaCl, 10% glycerol) and processed in a cell disruptor (Constant Systems Ltd) at 25 kPsi before centrifugation at 50,000 x G, at 4°C for 45 min. The lysate was incubated with Pure Cube Ni-NTA agarose (Cube Biotech, Germany) at 4°C for 20 min while shaking. The slurry was transferred to empty gravity-flow […]

| SMILES | MIC [1] [µg/mL] | MIC [2] [µg/mL] | MIC [3] [µg/mL] | MIC (Bacillus subtilis DSM 10) [µg/mL] | MIC (E. coli BW25113) [µg/mL] | MIC (E. coli DSM1116) [µg/mL] | Gyrase inhibition strong+ / weak − (E. coli DNA gyrase) | MIC (E. coli) [µg/mL] | Rt (retention time) [4] [min] | GIA: E. coli inhibition +AlbA (E. coli DSM 1116; E. coli DSM 1116, 10 µM compound with equimolar AlbAS) | bioactivity in presence of AlbAS (in words) (E. coli DSM 1116; E. coli, equimolar purified AlbAS) |
| --- | --- | --- | --- | --- | --- | --- | --- | --- | --- | --- | --- |
| COc1ccc(C(=O)Nc2ccc(C(=O)N[C@@H](Cc3c[nH]nn3)C(=O)Nc3ccc(C(=O)Nc4ccc(C(=O)Nc5ccc(C(=O)O)c(O)c5OC)c(O)c4OC)nc3)cc2)nc1 [compound 6] | 2 (≈ 2.32 µM) | ≤ 0.016 | 0.125 (≈ 0.145 µM) | 0.125 (≈ 0.145 µM) | ≤ 0.016 | 0.031 (≈ 0.036 µM) | + | 2 | 8.29 |  |  |
| COc1c(NC(=O)c2ccc(NC(=O)c3ccc(NC(=O)[C@H](Cc4c[nH]nn4)NC(=O)c4ccc(NC(=O)c5ccc(C(F)(F)F)cc5)cc4)cn3)c(OC)c2O)ccc(C(=O)O)c1O [compound 5] | 1 (≈ 1.11 µM) | ≤ 0.016 | 0.5 (≈ 0.557 µM) | 0.125 (≈ 0.139 µM) | 0.063 (≈ 0.0702 µM) | 0.016 (≈ 0.0178 µM) | − | 4 | 8.99 |  |  |
| COc1c(NC(=O)c2ccc(NC(=O)c3ccc(NC(=O)[C@H](Cc4cn[nH]n4)NC(=O)c4ccc(NC(=O)/C(C)=C/c5ccc(O)cc5)cc4)cc3)c(OC)c2O)ccc(C(=O)O)c1O [compound 2, reference compound] |  |  |  |  |  |  |  |  |  | − | deactivated |
| COc1c(NC(=O)c2ccc(NC(=O)c3ccc(NC(=O)[C@H](Cc4c[nH]nn4)NC(=O)c4ccc(NC(=O)c5ccc6nccnc6c5)cc4)cn3)c(OC)c2O)ccc(C(=O)O)c1O [compound 15] | 2 (≈ 2.27 µM) |  | 0.25 (≈ 0.284 µM) | 0.125 (≈ 0.142 µM) | 0.031 (≈ 0.0352 µM) | 0.031 (≈ 0.0352 µM) | + |  | 7.71 |  |  |
